Measurements: US8575197B2, “Pyrolinone derivative and pharmaceutical composition comprising the same” (Shionogi & Co., Ltd., priority 2008, dated 2013)

Each molecule was assayed against human P2X3 receptor (Homo sapiens (Human), UniProt P56373) (assay: P2X3 receptor inhibition, ATP-evoked Fluo-3 calcium fluorescence (FDSS 3000)). Details: C6BU-1 cell transfected with human P2X3 receptor gene; ATP-evoked Fluo-3 fluorescence.
Format: cell-based
In short: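 C6BU-1 cells stably transfected with human P2X3, loaded with 4 μM Fluo-3-AM for 1 h at 37 °C in HEPES buffer pH 7.5 with probenecid. Compound added 5 min before 40 nM ATP solution; fluorescence followed 3 min. IC50 from ratio of peak post-ATP to baseline fluorescence.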

Chain of human P2X3 receptor (P56373 whole entry): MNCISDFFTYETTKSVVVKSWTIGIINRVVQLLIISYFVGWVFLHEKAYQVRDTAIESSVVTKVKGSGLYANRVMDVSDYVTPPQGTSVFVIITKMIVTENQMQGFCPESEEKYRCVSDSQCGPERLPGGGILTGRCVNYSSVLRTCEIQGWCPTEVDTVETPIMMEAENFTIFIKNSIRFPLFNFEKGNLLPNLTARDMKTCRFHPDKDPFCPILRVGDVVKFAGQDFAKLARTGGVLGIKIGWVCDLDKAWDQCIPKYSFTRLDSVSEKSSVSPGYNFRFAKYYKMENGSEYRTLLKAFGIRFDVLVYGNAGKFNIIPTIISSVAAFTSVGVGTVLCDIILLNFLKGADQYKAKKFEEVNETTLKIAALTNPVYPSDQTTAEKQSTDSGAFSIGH

SMILES	IC50
COCc1ccccc1C1C(C(=O)C(C)C)=C(O)C(=O)N1c1ccc(-c2csc(C)n2)cc1 (centres unmarked) [Compound I-425]	697 nM
COCCOc1ccccc1C1C(C(=O)CC(C)C)=C(O)C(=O)N1c1ccc(-c2csc(C)n2)cc1 (centres unmarked) [Compound I-427]	331 nM
COCc1ccccc1C1C(C(=O)CC(C)C)=C(O)C(=O)N1c1ccc(-c2csc(C)n2)cc1 (centres unmarked) [Compound I-428]	399 nM
CC(C)C(=O)C1=C(O)C(=O)N(c2ccc(-c3ccsc3)cc2)C1c1ccccc1OCCCO (centres unmarked) [Compound I-429]	7 nM
CC(C)CC(=O)C1=C(O)C(=O)N(c2ccc(-c3ccoc3)cc2)C1c1ccccc1C(=O)N(C)C (centres unmarked) [Compound I-430]	153 nM
COCCOc1ncccc1[C@H]1C(C(=O)C(C)C)=C(O)C(=O)N1c1ccc(-c2ccsc2)cc1 [Compound I-433]	425 nM
COCCOc1ccccc1C1C(C(=O)CC(C)C)=C(O)C(=O)N1c1ccc(SC)cc1 (centres unmarked) [Compound I-435]	82 nM
CSc1ccc(N2C(=O)C(O)=C(C(=O)CC(C)C)C2c2ccccc2OC(C)C)cc1 (centres unmarked) [Compound I-436]	42 nM
Cc1nc(-c2ccc(N3C(=O)C(O)=C(C(=O)CC4CCCC4)C3C3CCCCC3)cc2)no1 (centres unmarked) [Compound I-438]	490 nM
COCc1ccccc1C1C(C(=O)CC2CCCC2)=C(O)C(=O)N1c1ccc(-c2ccsc2)cc1 (centres unmarked) [Compound I-439]	116 nM
CC(C)C(=O)C1=C(O)C(=O)N(c2ccc(-c3ccsc3)cc2)C1c1ccccc1N1CCOCC1 (centres unmarked) [Compound I-443]	6 nM
Cc1nc(-c2ccc(N3C(=O)C(O)=C(C(=O)C(C)C)C3c3ccccc3OCCCO)cc2)no1 (centres unmarked) [Compound I-444]	172 nM
COCCOc1ccccc1C1C(C(=O)CC(C)C)=C(O)C(=O)N1c1ccc(SC(F)(F)F)cc1 (centres unmarked) [Compound I-446]	338 nM
CC(C)CC(=O)C1=C(O)C(=O)N(c2ccc(SC(F)(F)F)cc2)C1c1ccccc1OC(C)C (centres unmarked) [Compound I-447]	128 nM
COCc1ccccc1C1C(C(=O)CC(C)C)=C(O)C(=O)N1c1ccc(SC(F)(F)F)cc1 (centres unmarked) [Compound I-448]	246 nM
CC(C)COc1ccccc1C1C(C(=O)C(C)C)=C(O)C(=O)N1c1ccc(-c2ccon2)cc1 (centres unmarked) [Compound I-450]	36 nM

SMILES	IC50
COc1ccc(F)cc1C1C(C(=O)C(C)C)=C(O)C(=O)N1c1ccc(-c2ccsc2)cc1 (centres unmarked) [Compound I-452]	26 nM
COc1ccc(F)cc1C1C(C(=O)C(C)C)=C(O)C(=O)N1c1ccc(-c2ccc(C)o2)cc1 (centres unmarked) [Compound I-454]	36 nM
CC(C)C(=O)C1=C(O)C(=O)N(c2ccc(-c3ccsc3)cc2)C1c1ccccc1OCC(CO)CO (centres unmarked) [Compound I-456]	6 nM
COc1ccccc1C1C(C(=O)C(C)C)=C(O)C(=O)N1c1ccc(-c2cc(C)on2)cc1 (centres unmarked) [Compound I-457]	488 nM
COCc1ccccc1C1C(C(=O)C(C)C)=C(O)C(=O)N1c1ccc(-c2cc(C)on2)cc1 (centres unmarked) [Compound I-458]	699 nM
COCc1ccccc1C1C(C(=O)c2cccnc2)=C(O)C(=O)N1c1ccc(-c2ccsc2)cc1 (centres unmarked) [Compound I-461]	36 nM
COc1ncccc1C1C(C(=O)CC(C)(C)C)=C(O)C(=O)N1c1ccc(-c2ccsc2)cc1 (centres unmarked) [Compound I-462]	427 nM
COCCOc1ccccc1[C@@H]1C(C(=O)C(C)C)=C(O)C(=O)N1c1ccc(-c2ccc(C)s2)cc1 [Compound I-465]	7 nM
CN(C)C(=O)c1ccccc1C1C(C(=O)CC(C)(C)C)=C(O)C(=O)N1c1ccc(-c2ccsc2)cc1 (centres unmarked) [Compound I-466]	260 nM
COc1ccccc1C1C(S(C)(=O)=O)=C(O)C(=O)N1c1ccc(-c2ccc(C)o2)cc1 (centres unmarked) [Compound I-468]	467 nM
CCOC(=O)C(C)(C)C(=O)C1=C(O)C(=O)N(c2ccc(-c3csc(C)c3)cc2)C1c1ccccc1OC (centres unmarked) [Compound I-470]	972 nM
COCCOc1ncccc1[C@@H]1C(C(=O)C(C)C)=C(O)C(=O)N1c1ccc(-c2ccc(C)s2)cc1 [Compound I-472]	7 nM
CSc1ccc(N2C(=O)C(O)=C(C(=O)C(C)C)C2c2ccccc2OC(C)C)cc1 (centres unmarked) [Compound I-474]	71 nM
COCCOc1ccccc1C1C(C(=O)C(C)C)=C(O)C(=O)N1c1ccc(SC)cc1 (centres unmarked) [Compound I-475]	181 nM
COCc1ccccc1C1C(C(=O)C(C)C)=C(O)C(=O)N1c1ccc(SC)cc1 (centres unmarked) [Compound I-477]	477 nM
COCCOc1ccccc1C1C(C(=O)C(C)C)=C(O)C(=O)N1c1ccc(-c2cc(C)on2)cc1 (centres unmarked) [Compound I-481]	378 nM

The next lines start with the values.

IC50	SMILES
111 nM	COCc1ccccc1C1C(C(=O)CC(C)C)=C(O)C(=O)N1c1ccc(SC)cc1 (centres unmarked) [Compound I-437]
35 nM	CCOc1ncccc1C1C(C(=O)CC(C)C)=C(O)C(=O)N1c1ccc(-c2ccsc2)cc1 (centres unmarked) [Compound I-440]
13 nM	CCOc1ncccc1C1C(C(=O)C(C)C)=C(O)C(=O)N1c1ccc(-c2ccsc2)cc1 (centres unmarked) [Compound I-441]
5 nM	CC(C)CC(=O)C1=C(O)C(=O)N(c2ccc(-c3ccsc3)cc2)C1c1ccccc1N1CCOCC1 (centres unmarked) [Compound I-442]
152 nM	Cc1nc(-c2ccc(N3C(=O)C(O)=C(C(=O)CC(C)C)C3c3ccccc3OCCCO)cc2)no1 (centres unmarked) [Compound I-445]
13 nM	CC(C)COc1ccccc1C1C(C(=O)C(C)C)=C(O)C(=O)N1c1ccc(-c2ccsc2)cc1 (centres unmarked) [Compound I-449]
19 nM	Cc1nc(-c2ccc(N3C(=O)C(O)=C(C(=O)C(C)C)C3c3ccccc3OCC(C)C)cc2)no1 (centres unmarked) [Compound I-451]
41 nM	COc1ccc(F)cc1C1C(C(=O)C(C)C)=C(O)C(=O)N1c1ccc(-c2csc(C)c2)cc1 (centres unmarked) [Compound I-453]
14 nM	COCc1ccccc1[C@@H]1C(C(=O)C(C)C)=C(O)C(=O)N1c1ccc(-c2csc(C)c2)cc1 [Compound I-455]
26 nM	CC(C)Oc1ccccc1C1C(C(=O)C(C)C)=C(O)C(=O)N1c1ccc(N2CCCC2)cc1 (centres unmarked) [Compound I-459]
103 nM	COc1ccccc1C1C(C(=O)c2cccnc2)=C(O)C(=O)N1c1ccc(-c2ccsc2)cc1 (centres unmarked) [Compound I-460]
127 nM	COCCOc1ncccc1C1C(C(=O)CC(C)(C)C)=C(O)C(=O)N1c1ccc(-c2ccsc2)cc1 (centres unmarked) [Compound I-463]
453 nM	CCc1nc2cc(N3C(=O)C(O)=C(C(=O)C(C)C)C3c3ccccc3OC(C)C)ccc2o1 (centres unmarked) [Compound I-464]
286 nM	COc1ccccc1C1C(S(=O)(=O)C(C)C)=C(O)C(=O)N1c1ccc(-c2ccc(C)o2)cc1 (centres unmarked) [Compound I-467]
646 nM	Cc1nc(-c2ccc(NC3=CC(C4CCCCC4)N(c4ccc(-c5noc(C)n5)cc4)C3=O)cc2)no1 (centres unmarked) [Compound I-469]
19 nM	COCCCOc1ncccc1C1C(C(=O)C(C)C)=C(O)C(=O)N1c1ccc(-c2ccc(C)o2)cc1 (centres unmarked) [Compound I-471]
182 nM	COc1ccccc1C1C(C(=O)C(C)C)=C(O)C(=O)N1c1ccc(SC)cc1 (centres unmarked) [Compound I-473]
51 nM	CSc1ccc(N2C(=O)C(O)=C(C(=O)C(C)C)C2c2ccccc2OCCCO)cc1 (centres unmarked) [Compound I-476]
34 nM	Cc1ccc(-c2ccc(N3C(=O)C(O)=C(C(=O)C(C)C)C3c3cccnc3OCCCO)cc2)o1 (centres unmarked) [Compound I-478]
10 nM	Cc1ccc(-c2ccc(N3C(=O)C(O)=C(C(=O)C(C)C)C3c3cccnc3OC(C)C)cc2)o1 (centres unmarked) [Compound I-479]
42 nM	COc1ccc(C(=O)C2=C(O)C(=O)N(c3ccc(-c4cc(C)on4)cc3)C2c2ccccc2OC)cc1 (centres unmarked) [Compound I-480]
